Measured values: PubChem BioAssay AID256 (DTP/NCI, 2004)
Inconclusive results and toxic doses are left out. How the source made its calls: active means survival T/C of 150% or more; inactive means T/C below 125% in these data.

Test system: CD2F1 mice, L1210 leukemia ip, survival T/C
Test: NCI In Vivo Anticancer Drug Screen. Data for tumor model L1210 Leukemia (intraperitoneal) in CD2F1 (CDF1) mice
Conditions: endpoint: mean survival time, higher = longer survival
Summary of the method: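 Compound-dosed mice with transplantable tumor versus matched vehicle controls; endpoint ratio T/C reported.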

[1] = dose: 100.0 mg/kg/injection, schedule: Q01DX009 (ip), vehicle: saline with Tween-80
[2] = dose: 200.0 mg/kg/injection, schedule: Q01DX009 (ip), vehicle: saline with Tween-80
[3] = dose: 100.0 mg/kg/injection, schedule: Q04DX003 (ip), vehicle: saline
[4] = dose: 200.0 mg/kg/injection, schedule: Q04DX003 (ip), vehicle: saline
[5] = dose: 400.0 mg/kg/injection, schedule: Q04DX003 (ip), vehicle: saline
[6] = dose: 25.0 mg/kg/injection, schedule: Q04DX003 (ip), vehicle: saline with Tween-80
[7] = dose: 50.0 mg/kg/injection, schedule: Q04DX003 (ip), vehicle: saline with Tween-80
[8] = dose: 100.0 mg/kg/injection, schedule: Q04DX003 (ip), vehicle: saline with Tween-80
[9] = dose: 100.0 mg/kg/injection, schedule: Q01DX009 (ip), vehicle: saline
[10] = dose: 100.0 mg/kg/injection, schedule: Q01DX001 (ip), vehicle: saline
[11] = dose: 200.0 mg/kg/injection, schedule: Q01DX001 (ip), vehicle: saline
[12] = dose: 400.0 mg/kg/injection, schedule: Q01DX001 (ip), vehicle: saline

Measured: T/C

COc1cc(C)ccc1Cl
inactive: [1] 101 % of control | [2] 118 % of control

NC(=O)C(CCCCC(C(N)=O)C(N)=O)C(N)=O
inactive: dose: 100.0 mg/kg/injection, schedule: Q04DX002 (ip), vehicle: saline with Tween-80 96 % of control | dose: 200.0 mg/kg/injection, schedule: Q04DX002 (ip), vehicle: saline with Tween-80 108 % of control | dose: 400.0 mg/kg/injection, schedule: Q04DX002 (ip), vehicle: saline with Tween-80 108 % of control

CNC1C(CO)OC(n2cnc3c(N)ncnc32)C1O (configuration not stated)
inactive: dose: 75.0 mg/kg/injection, schedule: Q01DX001 (ip), vehicle: saline 106 % of control | dose: 150.0 mg/kg/injection, schedule: Q01DX001 (ip), vehicle: saline 103 % of control | dose: 300.0 mg/kg/injection, schedule: Q01DX001 (ip), vehicle: saline 109 % of control

O=C(O)CCC(=O)NO
inactive: [3] 109 % of control | [4] 109 % of control | [5] 109 % of control

NC(=O)c1cc(N2CC2)c([N+](=O)[O-])cc1[N+](=O)[O-]
inactive: dose: 25.0 mg/kg/injection, schedule: Q01DX009 (ip), vehicle: saline with Tween-80 114 % of control | [6] 110 % of control | dose: 50.0 mg/kg/injection, schedule: Q01DX009 (ip), vehicle: saline with Tween-80 115 % of control | [7] 97 % of control | [8] 106 % of control

CC(/C=N/N(C)C)=N/[N+](C)(C)C
inactive: dose: 50.0 mg/kg/injection, schedule: Q01DX009 (ip), vehicle: saline 101 % of control | [9] 101 % of control

[Cl][Pt+2][Cl].[NH-]c1cc(F)ccc1F.[NH-]c1cc(F)ccc1F
inactive: dose: 3.13 mg/kg/injection, schedule: Q04DX003 (ip), vehicle: distilled water + Tween-80 112 % of control | dose: 6.25 mg/kg/injection, schedule: Q04DX003 (ip), vehicle: distilled water + Tween-80 110 % of control | dose: 12.5 mg/kg/injection, schedule: Q04DX003 (ip), vehicle: distilled water + Tween-80 112 % of control | dose: 25.0 mg/kg/injection, schedule: Q04DX003 (ip), vehicle: distilled water + Tween-80 120 % of control | dose: 50.0 mg/kg/injection, schedule: Q04DX003 (ip), vehicle: distilled water + Tween-80 110 % of control

CC(=O)NC/C(C)=N/Nc1ccc([N+](=O)[O-])cc1[N+](=O)[O-]
inactive: [6] 93 % of control | [7] 87 % of control | [8] 91 % of control

CCN(C(=O)c1ccc(C(=O)N(CC)c2ccccc2)cc1)c1ccccc1
inactive: [1] 95 % of control | [2] 101 % of control | dose: 400.0 mg/kg/injection, schedule: Q01DX009 (ip), vehicle: saline with Tween-80 90 % of control

O=c1[nH]cnc2c1nc(N1CCCC1)n2C1OC(CO)C(O)C1O (configuration not stated)
inactive: dose: 12.5 mg/kg/injection, schedule: Q01DX005 (ip), vehicle: distilled water + Tween-80 102 % of control | dose: 25.0 mg/kg/injection, schedule: Q01DX005 (ip), vehicle: distilled water + Tween-80 98 % of control | dose: 50.0 mg/kg/injection, schedule: Q01DX005 (ip), vehicle: distilled water + Tween-80 100 % of control | dose: 100.0 mg/kg/injection, schedule: Q01DX005 (ip), vehicle: distilled water + Tween-80 102 % of control

O=C(CCCN1CCC2(CC1)CC(=O)N(N1CCCC1)C2=O)c1ccc(F)cc1
inactive: dose: 100.0 mg/kg/injection, schedule: Q01DX001 (ip), vehicle: saline with Tween-80 108 % of control | dose: 200.0 mg/kg/injection, schedule: Q01DX001 (ip), vehicle: saline with Tween-80 116 % of control | dose: 400.0 mg/kg/injection, schedule: Q01DX001 (ip), vehicle: saline with Tween-80 116 % of control

CCCCCCCCCCCCCCCCCC[N+]1(C)CCC1C (configuration not stated)
inactive: dose: 1.56 mg/kg/injection, schedule: Q01DX001 (ip), vehicle: saline 101 % of control | dose: 3.12 mg/kg/injection, schedule: Q01DX001 (ip), vehicle: saline 102 % of control

Nc1nc(N)c2nc(CN(Cc3ccccc3)c3ccc(C(=O)NC(CCC(=O)O)C(=O)O)cc3)cnc2n1 (configuration not stated)
inactive: dose: 20.0 mg/kg/injection, schedule: Q01DX009 (ip), vehicle: sodium bicarbonate 109 % of control | dose: 40.0 mg/kg/injection, schedule: Q01DX009 (ip), vehicle: sodium bicarbonate 114 % of control | dose: 80.0 mg/kg/injection, schedule: Q01DX009 (ip), vehicle: sodium bicarbonate 114 % of control | dose: 100.0 mg/kg/injection, schedule: Q01DX001 (ip), vehicle: sodium bicarbonate 94 % of control | dose: 200.0 mg/kg/injection, schedule: Q01DX001 (ip), vehicle: sodium bicarbonate 91 % of control | dose: 400.0 mg/kg/injection, schedule: Q01DX001 (ip), vehicle: sodium bicarbonate 91 % of control

COc1ccc(C(O)(CC(=O)O)c2ccc(OC)cc2)cc1
inactive: [10] 98 % of control | [11] 95 % of control | [12] 97 % of control

O=C1C=C(O)c2ccccc2C1=O
inactive: dose: 25.0 mg/kg/injection, schedule: Q01DX001 (ip), vehicle: saline 106 % of control | dose: 50.0 mg/kg/injection, schedule: Q01DX001 (ip), vehicle: saline 106 % of control | [10] 102 % of control

CC(=O)NC(C)(C)C
inactive: [8] 98 % of control | dose: 200.0 mg/kg/injection, schedule: Q04DX003 (ip), vehicle: saline with Tween-80 106 % of control | dose: 400.0 mg/kg/injection, schedule: Q04DX003 (ip), vehicle: saline with Tween-80 104 % of control

Cc1cccc(OCCOC(=O)Nc2cccc(C(F)(F)F)c2)c1
inactive: dose: 90.0 mg/kg/injection, schedule: Q01DX009 (ip), vehicle: acetone 101 % of control | dose: 180.0 mg/kg/injection, schedule: Q01DX009 (ip), vehicle: acetone 103 % of control | dose: 360.0 mg/kg/injection, schedule: Q01DX009 (ip), vehicle: acetone 101 % of control

O=S(=O)(Cc1ccccc1)CC(Br)CBr (configuration not stated)
inactive: dose: 100.0 mg/kg/injection, schedule: Q01DX001 (ip), vehicle: Klucel (hydroxypropylcellulose) (HPC) 91 % of control | dose: 200.0 mg/kg/injection, schedule: Q01DX001 (ip), vehicle: Klucel (hydroxypropylcellulose) (HPC) 103 % of control | dose: 400.0 mg/kg/injection, schedule: Q01DX001 (ip), vehicle: Klucel (hydroxypropylcellulose) (HPC) 106 % of control

Cc1ccnc(N)c1.[Cl-].[Cl-].[Cl-].[Cl-].[Pt+2]
inactive: [6] 106 % of control | [7] 101 % of control

COB(C1CCCCC1)C1CCCCC1
inactive: dose: 100.0 mg/kg/injection, schedule: Q01DX009 (ip), vehicle: other 91 % of control | dose: 200.0 mg/kg/injection, schedule: Q01DX009 (ip), vehicle: other 88 % of control

c1ccc2c(-c3nnn4ccccc34)cccc2c1
inactive: [10] 89 % of control | [11] 106 % of control | [12] 97 % of control

CC(S)CN (configuration not stated)
inactive: [9] 96 % of control | [3] 101 % of control | dose: 200.0 mg/kg/injection, schedule: Q01DX009 (ip), vehicle: saline 94 % of control | [4] 98 % of control | dose: 400.0 mg/kg/injection, schedule: Q01DX009 (ip), vehicle: saline 101 % of control | [5] 104 % of control
